Source: ChEMBL document CHEMBL1127007, “Quinazolinones 2: QSAR and in vivo characterization of AT1 selective AII antagonists” (Bioorg Med Chem Lett, 1993)

Tests used:
[1] = biological target: T1, Type-1 angiotensin II receptor (Oryctolagus cuniculus, UniProt P34976); assay: Displacement of [125I]Sar1-Ile8-AII (without BSA) from type 1 Angiotensin II receptor of rabbit aorta; format: tissue-based
T1 sequence (P34976 whole entry): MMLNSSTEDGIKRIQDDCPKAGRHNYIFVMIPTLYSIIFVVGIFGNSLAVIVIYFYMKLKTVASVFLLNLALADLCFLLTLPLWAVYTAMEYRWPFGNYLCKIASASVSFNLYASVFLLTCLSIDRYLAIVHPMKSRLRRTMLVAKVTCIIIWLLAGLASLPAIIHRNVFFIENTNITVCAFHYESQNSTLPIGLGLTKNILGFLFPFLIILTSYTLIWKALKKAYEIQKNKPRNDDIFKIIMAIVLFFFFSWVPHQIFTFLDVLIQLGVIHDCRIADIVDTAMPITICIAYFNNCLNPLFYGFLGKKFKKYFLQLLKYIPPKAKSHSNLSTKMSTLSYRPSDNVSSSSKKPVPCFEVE

[2] = tested on: Rattus norvegicus; assay: The duration of action is expressed as the time for the % inhibition of pressor response to fall below 30% for a single bolus of the drug administered perorally.; format: functional
[3] = tested on: Rattus norvegicus; assay: Compound was evaluated in vivo for inhibition of the AII pressor response in normotensive rat at dose 1 mg/kg, p.o. after 0.2 hour; format: functional; conditions: route oral
[4] = biological target: T2, Type-2 angiotensin II receptor (Homo sapiens) (UniProt P50052); assay: In vitro antagonist activity against the Angiotensin II (type 2) receptor.; format: functional
T2 sequence (whole entry): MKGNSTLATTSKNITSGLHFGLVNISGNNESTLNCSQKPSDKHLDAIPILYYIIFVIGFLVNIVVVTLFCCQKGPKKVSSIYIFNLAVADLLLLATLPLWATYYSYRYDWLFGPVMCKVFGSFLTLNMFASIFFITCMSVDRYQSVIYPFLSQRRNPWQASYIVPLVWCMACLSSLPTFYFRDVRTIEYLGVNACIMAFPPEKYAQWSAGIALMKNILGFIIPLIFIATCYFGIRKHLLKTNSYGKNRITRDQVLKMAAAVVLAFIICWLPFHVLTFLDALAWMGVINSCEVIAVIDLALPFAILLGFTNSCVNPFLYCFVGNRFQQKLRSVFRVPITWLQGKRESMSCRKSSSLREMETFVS

[5] = tested on: Rattus norvegicus; assay: Compound was evaluated in vivo for inhibition of the AII pressor response in normotensive rat at dose 1 mg/kg, iv after 4.5 hour; format: functional
[6] = biological target: Angiotensin II receptor (Rattus norvegicus) (UniProt P29089+P25095+P35351); assay: Duration of action as time for pressor response to fall below 30% for a single bolus by intravenous dose; format: functional, organism-based
[7] = tested on: Rattus norvegicus; assay: Compound was evaluated in vivo for inhibition of the AII pressor response in normotensive rat at dose 1 mg/kg, iv after 0.2 hour; format: functional
[8] = tested on: Rattus norvegicus; assay: Compound was evaluated in vivo for inhibition of the AII pressor response in normotensive rat at dose 0.3 mg/kg, iv; format: functional
[9] = biological target: T1, Type-1 angiotensin II receptor; assay: Ability to displace [125I]Sar1-Ile8-AII from angiotensin II receptor, type 1 in rabbit aorta in presence of 0.2% bovine serum albumin (BSA) was determined in vitro; format: tissue-based
[10] = tested on: Rattus norvegicus; assay: Compound was evaluated in vivo for inhibition of the AII pressor response in normotensive rat at dose 1 mg/kg, iv after 0.3 hour; format: functional
[11] = tested on: Rattus norvegicus; assay: Compound was evaluated in vivo for inhibition of the AII pressor response in normotensive rat at dose 3 mg/kg, p.o. after 1.1 hour; format: functional; conditions: route oral
[12] = tested on: Rattus norvegicus; assay: Compound was evaluated in vivo for inhibition of the AII pressor response in normotensive rat at dose 10 mg/kg, iv after 2.2 hour; format: functional
[13] = tested on: Rattus norvegicus; assay: Compound was evaluated in vivo for inhibition of the AII pressor response in normotensive rat at dose 3 mg/kg, iv after 0.9 hour; format: functional
[14] = tested on: Rattus norvegicus; assay: Compound was evaluated in vivo for inhibition of the AII pressor response in normotensive rat at dose 1 mg/kg, iv after 1 hour; format: functional
[15] = tested on: Rattus norvegicus; assay: Compound was evaluated in vivo for inhibition of the AII pressor response in normotensive rat at dose 1 mg/kg, iv after 1.2 hour; format: functional
[16] = tested on: Rattus norvegicus; assay: Compound was evaluated in vivo for inhibition of the AII pressor response in normotensive rat at dose 1 mg/kg, iv; format: functional
[17] = tested on: Rattus norvegicus; assay: Compound was evaluated in vivo for inhibition of the AII pressor response in normotensive rat at dose 3 mg/kg, p.o. after 4.2 hour; format: functional; conditions: route oral
[18] = tested on: Rattus norvegicus; assay: Compound was evaluated in vivo for inhibition of the AII pressor response in normotensive rat at dose 3 mg/kg, iv after 2.5 hour; format: functional
[19] = tested on: Rattus norvegicus; assay: Compound was evaluated in vivo for inhibition of the AII pressor response in normotensive rat at dose 1 mg/kg, iv after 1.8 hour; format: functional

| SMILES | Activity [4] [nM] | Duration [6] [h] | IC50 [9] [nM] | further results |
| --- | --- | --- | --- | --- |
| CCCCc1nc2ccc(-c3ccc(Cl)cc3)cc2c(=O)n1Cc1ccc(-c2ccccc2-c2nn[nH]n2)cc1 | – | – | – | IC50 [1]: 30 nM |
| CCCCc1nc2ccc(N)cc2c(=O)n1Cc1ccc(-c2ccccc2-c2nn[nH]n2)cc1 | > 1000 | 4.5 | – | Duration [2]: 0.2 h; inhibition in vivo at 1 mg/kg [3]: 32%; inhibition in vivo at 1 mg/kg [5]: 93% |
| CCCCc1nc2cc(OC)c(OC)cc2c(=O)n1Cc1ccc(-c2ccccc2-c2nn[nH]n2)cc1 | > 1000 | 0.2 | – | inhibition in vivo at 1 mg/kg [7]: 30% |
| CCCCc1nc2ccc(OC(=O)NC(C)C)cc2c(=O)n1Cc1ccc(-c2ccccc2-c2nn[nH]n2)cc1 | > 1000 | 0 | 1 | inhibition in vivo at 0.3 mg/kg [8]: 30% |
| CCCCc1nc2ccccc2c(=O)n1Cc1ccc(-c2ccccc2-c2nn[nH]n2)cc1 | > 1000 | – | 6 | Duration [2]: 1.1 h; inhibition in vivo at 1 mg/kg [10]: 40%; inhibition in vivo at 3 mg/kg [11]: 54%; inhibition in vivo at 10 mg/kg [12]: 98%; inhibition in vivo at 3 mg/kg [13]: 70% |
| CCCCc1nc2ccc(CC)cc2c(=O)n1Cc1ccc(-c2ccccc2-c2nnn[nH]2)cc1 | – | – | 4 | – |
| CC(=O)Nc1ccc2nc(-c3ccc(-c4ccccc4C(=O)O)cc3)n(Cc3ccc(-c4ccccc4-c4nn[nH]n4)cc3)c(=O)c2c1 | – | – | 50 | – |
| CCCCc1nc2ccc(NC(=O)OCc3ccccc3)cc2c(=O)n1Cc1ccc(-c2ccccc2-c2nn[nH]n2)cc1 | > 1000 | 1 | 4.3 | inhibition in vivo at 1 mg/kg [14]: 84% |
| CCCCc1nc2ccc(O)cc2c(=O)n1Cc1ccc(-c2ccccc2-c2nnn[nH]2)cc1 | – | – | 27 | – |
| CCCCc1nc2ccc(NC)cc2c(=O)n1Cc1ccc(-c2ccccc2-c2nn[nH]n2)cc1 | > 1000 | 1.2 | – | inhibition in vivo at 1 mg/kg [15]: 94% |
| CCCCc1nc2ccc(C)cc2c(=O)n1Cc1ccc(-c2ccccc2-c2nn[nH]n2)cc1 | > 1000 | – | – | Duration [2]: 4.2 h; inhibition in vivo at 1 mg/kg [16]: 28%; inhibition in vivo at 3 mg/kg [17]: 64%; inhibition in vivo at 3 mg/kg [18]: 76% |
| CCCCc1nc2ccc(N(C)C(=O)N(C)C(C)C)cc2c(=O)n1Cc1ccc(-c2ccccc2-c2nnn[nH]2)cc1 | – | – | – | IC50 [1]: 0.58 nM |
| O=C(O)c1ccccc1-c1ccc(-c2nc3ccccc3c(=O)n2Cc2ccc(-c3ccccc3-c3nn[nH]n3)cc2)cc1 | – | – | 20 | – |
| CCCCc1nc2ccc(NC(=O)OCC(C)C)cc2c(=O)n1Cc1ccc(-c2ccccc2-c2nnn[nH]2)cc1 | – | – | 6.4 | IC50 [1]: 1.6 nM |
| CCCCc1nc2ccc(NC)cc2c(=O)n1Cc1ccc(-c2ccccc2-c2nnn[nH]2)cc1 | – | – | 2 | – |
| CCCCC(=O)Nc1ccc2nc(CCCC)n(Cc3ccc(-c4ccccc4-c4nnn[nH]4)cc3)c(=O)c2c1 | – | – | – | IC50 [1]: 8.9 nM |
| CCCCc1nc2ccc([S+](C)[O-])cc2c(=O)n1Cc1ccc(-c2ccccc2-c2nn[nH]n2)cc1 (stereo unspecified) | > 1000 | 1.8 | 1 | IC50 [1]: 0.9 nM; inhibition in vivo at 1 mg/kg [19]: 89% |
